Data published in the supplement of paper PMC10307832.

What was measured:
Assay in all cases: relative viability (nuclei count vs DMSO), 5 days (fraction); higher = more cells survive
[1] = compound: CCOC(=O)CCNc1cc(N2CCc3ccccc3CC2)nc(-c2ccccn2)n1 [GSK-J4] + COc1cccc2cc(-c3nc([C@H]4CC[C@H](C(=O)O)CC4)n4ncnc(N)c34)[nH]c12 [OSI-027] (partner 0.5 µM)
In short: (§1)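 One day after seeding in 1536-well plates, lung cancer cell lines were dosed by pin tool. Dosing was either single-drug or a fixed anchor-drug dose plus five library-drug doses (not always all listed) in √10 steps. After 5 days, nuclei were stained in one fix-and-stain step and counted on 4× images, and relative viability is the nuclei count of treated wells over that of vehicle wells, given as the median of duplicate plates.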

[2] = compound: CCOC(=O)CCNc1cc(N2CCc3ccccc3CC2)nc(-c2ccccn2)n1 [GSK-J4] + CS(=O)(=O)N1CCN(Cc2cc3nc(-c4cccc5[nH]ncc45)nc(N4CCOCC4)c3s2)CC1 [Pictilisib] (partner 1 µM)
In short: as §1

[3] = compound: CN1CCC(CC1)OC2=CC(=C(C=C2)NC3=NC=C4C(=N3)N(C(=O)N4C)C5CCCC5)OC [AZ3146] + CS(=O)(=O)CCNCc1ccc(-c2ccc3ncnc(Nc4ccc(OCc5cccc(F)c5)c(Cl)c4)c3c2)o1 [Lapatinib] (partner 2 µM)
In short: as §1

[4] = compound: CN1CCC(CC1)OC2=CC(=C(C=C2)NC3=NC=C4C(=N3)N(C(=O)N4C)C5CCCC5)OC [AZ3146] + Cc1nc(Nc2ncc(C(=O)Nc3c(C)cccc3Cl)s2)cc(N2CCN(CCO)CC2)n1 [Dasatinib] (partner 0.075 µM)
In short: as §1

Row | Cell Line | relative viability ([1]; first compound 0.5 µM) | relative viability ([1]; first compound 1.581 µM) | relative viability ([1]; first compound 5 µM) | relative viability ([1]; first compound 15.81 µM) | relative viability ([1]; first compound 50 µM) | relative viability ([2]; first compound 0.5 µM) | relative viability ([2]; first compound 1.581 µM) | relative viability ([2]; first compound 5 µM) | relative viability ([2]; first compound 15.81 µM) | relative viability ([2]; first compound 50 µM) | relative viability ([3]; first compound 0.08 µM) | relative viability ([3]; first compound 0.253 µM) | relative viability ([3]; first compound 0.8 µM) | relative viability ([3]; first compound 2.53 µM) | relative viability ([3]; first compound 8 µM) | relative viability ([4]; first compound 0.08 µM) | relative viability ([4]; first compound 0.253 µM) | relative viability ([4]; first compound 0.8 µM) | relative viability ([4]; first compound 2.53 µM) | relative viability ([4]; first compound 8 µM)
1 | NCI-H322M | 0.556 | 0.506 | 0.637 | 0.504 | 0.49 | 0.544 | 0.574 | 0.7 | 0.538 | 0.465 | 0.72 | 0.593 | 0.609 | 0.608 | 0.584 | 0.236 | 0.248 | 0.24 | 0.251 | 0.285
2 | NCI-H1915 | 0.598 | 0.578 | – | 0.595 | 0.657 | 0.905 | 0.774 | 0.901 | 0.962 | 1.03 | 1.05 | 0.864 | 1.04 | 0.933 | 1.02 | 0.262 | 0.344 | 0.337 | 0.301 | 0.318
3 | HOP-62 | 0.69 | 0.692 | 0.722 | 0.858 | 0.497 | 0.735 | 0.322 | 0.762 | 0.76 | 0.387 | 0.958 | 0.975 | 0.941 | 0.846 | 1.06 | 0.603 | 0.618 | 0.609 | 0.646 | 0.656
4 | LXF-289 | 0.783 | 0.583 | 0.53 | 0.711 | 0.52 | 0.761 | 0.655 | 0.691 | 0.754 | 0.562 | 0.846 | 0.924 | 0.889 | 0.907 | 0.908 | 0.276 | 0.241 | 0.172 | 0.227 | 0.18
5 | BEN | 0.334 | 0.249 | – | 0.315 | 0.212 | 0.666 | 0.471 | – | 0.539 | 0.33 | – | 0.683 | 0.805 | 0.659 | 0.681 | – | 0.228 | 0.353 | 0.322 | 0.362
6 | NCI-H2009 | 0.573 | 0.491 | 0.601 | 0.527 | 0.283 | 0.816 | 0.317 | 0.673 | 0.85 | 0.428 | 0.817 | 0.975 | 1.06 | 1.09 | 0.409 | 0.363 | 0.315 | 0.284 | 0.241 | 0.184
7 | NCI-H1755 | 0.623 | 0.468 | 0.571 | 0.553 | 0.509 | 0.453 | 0.38 | 0.378 | 0.387 | 0.331 | 1.03 | 1.05 | 0.973 | 1.05 | 1.05 | 0.492 | 0.425 | 0.424 | 0.441 | 0.408
8 | NCI-H520 | 0.33 | 0.22 | 0.278 | 0.248 | 0.257 | 0.269 | 0.236 | 0.303 | 0.275 | 0.414 | 0.797 | 0.84 | 0.838 | 0.965 | 0.576 | 0.166 | 0.171 | 0.197 | 0.592 | 0.19
9 | LOU-NH91 | 0.749 | 0.721 | 0.56 | 0.69 | 0.792 | 0.596 | 0.508 | 0.542 | 0.532 | 0.518 | 0.969 | 0.739 | 0.692 | 0.768 | 0.777 | 0.581 | 0.485 | 0.632 | 0.602 | 0.566
10 | LU99A | 0.267 | 0.323 | – | 0.248 | 0.236 | 0.277 | 0.276 | 0.292 | 0.346 | 0.219 | 0.864 | 1.15 | 1.06 | 0.954 | 0.995 | 0.645 | 0.528 | 0.464 | 0.56 | 0.606
11 | PC-14 | 0.844 | 0.759 | 0.777 | 0.778 | 0.694 | 0.642 | 0.672 | 0.678 | 0.714 | 0.615 | 0.285 | 0.351 | 0.279 | 0.382 | 0.315 | 0.271 | 0.268 | 0.259 | 0.229 | 0.0367
12 | NCI-H1563 | 0.796 | 0.766 | 0.659 | 0.659 | 0.748 | 0.695 | 0.719 | 0.62 | 0.709 | 0.619 | 0.695 | 0.881 | 0.951 | 0.927 | 0.873 | 0.482 | 0.48 | 0.441 | 0.422 | 0.448
13 | LC-2-ad | 0.828 | 0.759 | 0.659 | 0.623 | 0.528 | 0.548 | 0.458 | 0.622 | 0.547 | 0.322 | 0.828 | 1.04 | 0.907 | 0.914 | 0.631 | 0.549 | 0.746 | 0.584 | 0.665 | 0.527
14 | NCI-H2126 | 0.706 | 0.7 | 0.949 | 0.576 | 0.45 | 0.517 | 0.446 | 0.633 | 0.519 | 0.41 | 0.691 | 0.745 | 0.707 | 0.818 | 0.729 | 0.575 | 0.629 | 0.56 | 0.628 | 0.523
